Experiment: MTT cell viability assay, compounds at 5, 1 and 0.2 μM, 48 hours
Assay type: cell-based
Details: human, A549 tumor cells
Description: MTT assay is used to determine cell proliferation, percent of viable cells, and cytotoxicity. MTT (3-[4,5-dimethylthiazol-2-yl]2,5-diphenyltetrazolium bromide) is a yellow dye, which can be absorbed by the living cells and be reduced to purplish blue formazan crystals by succinate tetrazolium reductase in mitochondria. Formazan formation can therefore be used to assess and determine the survival rate of cells.
Tumor cells (A549) were plated at 2500 cells/well of a 96-well plate in complete growth medium (DMEM+10% FBS, antibiotic/antimycotic, fungizone, L-glutamine, sodium pyruvate, and non-essential amino acids). The cells were allowed to grow overnight. After cell proliferation, the cells were washed and re-suspended in fresh culture medium and placed in 96 well plates.
To each of the 96 well plates containing A549 and a control, 5, 1, and 0.2 μM of the exemplary compounds 1-200 were add. The 96 well plates were incubated for 48 hours. Cell viability was measured by adding MTT (Sigma) at 5 mg/ml for 4 h to the cells and then removing the medium and resuspending each well in 50 μl DMSO to solubilize the crystals. The 96-well plates were read on a plate-scanning spectrophotometer (BioTek) at an absorbance of […]. The survival rate of cells was calculated based on the measurement of absorption at the 570 nm wavelength by enzyme immunoassay analyzer.

Compound	viability at 48 h, 0.2 µM [%]	viability at 48 h, 1 µM [%]	viability at 48 h, 5 µM [%]
C[S+]([O-])c1nc(N)cc(Oc2ccc(-c3nnc(Nc4cccc(C(F)(F)F)c4)[nH]3)cc2)n1 (stereo not drawn) [Compound 63]	> 70	> 70	50 to 70
[2H]C([2H])([2H])Oc1cc(Oc2ccc(-c3nnc(Nc4cccc(C(F)(F)F)c4)[nH]3)cc2)nc(N)n1 [Compound 142]	> 70	> 70	> 70
COc1ccc2nccc(Oc3ccc(-c4nnc(Nc5cccc(C(F)(F)F)c5)[nH]4)cc3)c2c1 [Compound 185]	> 70	> 70	> 70
COc1nccc(Oc2cccc(-c3nnc(Nc4cccc(C(F)(F)F)c4)[nH]3)c2)n1 [Compound 88]	> 70	> 70	> 70
FC(F)(F)c1cccc(Nc2nnc(-c3ccc(Oc4ncnc5[nH]ccc45)cc3)s2)c1 [Compound 45]	> 70	50 to 70	< 50
Nc1cc(Oc2ccc(-c3nnc(Nc4cccc(C(F)(F)F)c4)[nH]3)cc2)nc(SCCO)n1 [Compound 115]	> 70	> 70	> 70
FC(F)(F)c1cccc(Nc2nnc(-c3cccc(Oc4ccnc5cc(Cl)ccc45)c3)[nH]2)c1 [Compound 167]	> 70	> 70	> 70
O=c1cc(COc2cccc(-c3nnc(Nc4cccc(C(F)(F)F)c4)[nH]3)c2)c2ccccc2[nH]1 [Compound 171]	> 70	> 70	> 70
COCCOc1nc(N)cc(Oc2cccc(-c3nnc(Nc4cccc(C(F)(F)F)c4)[nH]3)c2)n1 [Compound 96]	> 70	> 70	> 70
COc1nc(N)cc(Oc2ccc(-c3nnc(Nc4cccc(C(F)(F)F)c4)[nH]3)cc2)n1 [Compound 72]	> 70	> 70	< 50
CSc1nc(N)cc(Oc2ccc(-c3nnc(Nc4cccc(C)c4C)[nH]3)cc2)n1 [Compound 126]	< 50	< 50	< 50
CSc1nc(Oc2cccc(-c3nnc(Nc4cccc(C(F)(F)F)c4)[nH]3)c2)c2cc[nH]c2n1 [Compound 56]	> 70	> 70	> 70
COc1ccc2c(Oc3cccc(-c4nnc(Nc5cccc(C(F)(F)F)c5)s4)c3)ccnc2c1 [Compound 49]	> 70	> 70	50 to 70
CSc1nc(N)cc(Oc2ccc(-c3nnc(Nc4ccc(F)c(C(F)(F)F)c4)[nH]3)cc2)n1 [Compound 105]	> 70	> 70	< 50
CC(C)(C)Sc1cc(Oc2ccc(-c3nnc(Nc4cccc(C(F)(F)F)c4)[nH]3)cc2)nc(N)n1 [Compound 141]	> 70	> 70	< 50
CSc1nc(N)cc(Oc2ccc(-c3nnc(Nc4cccc(C(F)(F)F)c4)o3)cc2)n1 [Compound 25]	< 50	< 50	< 50
CSc1nc(N)cc(Oc2ccc(-c3nnc(Nc4cc(C(C)(C)C)on4)[nH]3)cc2)n1 [Compound 129]	> 70	> 70	> 70
FC(F)(F)c1cccc(Nc2nnc(-c3ccc(Oc4cncc5ccccc45)cc3)[nH]2)c1 [Compound 146]	> 70	> 70	< 50

Compound	viability at 48 h, 0.2 µM [%]	viability at 48 h, 1 µM [%]	viability at 48 h, 5 µM [%]
COc1ccc2nccc(Oc3cccc(-c4nnc(Nc5cccc(C(F)(F)F)c5)[nH]4)c3)c2c1 [Compound 191]	> 70	> 70	> 70
FC(F)(F)c1cccc(Nc2nnc(-c3ccc(Oc4cncnc4)cc3)[nH]2)c1 [Compound 83]	> 70	> 70	> 70
Cc1ccc2nccc(Oc3cccc(-c4nnc(Nc5cccc(C(F)(F)F)c5)[nH]4)c3)c2c1 [Compound 172]	> 70	> 70	50 to 70
CSc1nc(N)cc(Oc2cccc(-c3nnc(Nc4ccc(F)c(C(F)(F)F)c4)[nH]3)c2)n1 [Compound 106]	> 70	> 70	> 70
Nc1cc(Oc2ccc(-c3nnc(Nc4cccc(C(F)(F)F)c4)s3)cc2)nc(N)n1 [Compound 43]	> 70	> 70	> 70
CSc1nc(N)cc(Oc2c(C)cc(-c3nnc(Nc4cccc(C(F)(F)F)c4)[nH]3)cc2C)n1 [Compound 110]	> 70	> 70	> 70
FC(F)(F)c1cccc(Nc2nnc(-c3ccc(Oc4ccnc5ccccc45)cc3)o2)c1 [Compound 34]	> 70	> 70	> 70
Cc1ccc(-c2nnc(Nc3cccc(C(F)(F)F)c3)[nH]2)cc1Oc1cccnc1 [Compound 177]	> 70	> 70	> 70
Oc1ccc(Nc2nnc(-c3cccc(Cl)c3)[nH]2)cc1 [Compound 182]	> 70	> 70	> 70
CSc1nc(N)cc(Oc2ccc(-c3nnc(Nc4cccc(C)c4)[nH]3)cc2)n1 [Compound 65]	> 70	> 70	50 to 70
O=c1cc(COc2ccc(-c3nnc(Nc4cccc(C(F)(F)F)c4)[nH]3)cc2)c2ccccc2[nH]1 [Compound 161]	> 70	50 to 70	< 50
CSc1nc(N)cc(Oc2cc(-c3nnc(Nc4cccc(C(F)(F)F)c4)[nH]3)ccc2C)n1 [Compound 179]	> 70	> 70	50 to 70
Nc1nccc(Oc2ccc(-c3nnc(Nc4cccc(C(F)(F)F)c4)[nH]3)cc2)n1 [Compound 1]	> 70	50 to 70	50 to 70
CNc1cc(Oc2ccc(-c3nnc(Nc4cccc(C(F)(F)F)c4)[nH]3)cc2)nc(SC)n1 [Compound 118]	> 70	> 70	> 70
CSc1nc(N)cc(Oc2ccc(-c3nnc(Nc4cccc(C(F)(F)F)c4)[nH]3)c(F)c2)n1 [Compound 107]	> 70	> 70	50 to 70
COc1ccc2c(Oc3ccc(-c4nnc(Nc5cccc(C(F)(F)F)c5)[nH]4)cc3)cc(C)nc2c1 [Compound 188]	> 70	> 70	> 70
Cc1ccc(-c2nnc(Nc3cccc(C(F)(F)F)c3)[nH]2)cc1Oc1ccncc1 [Compound 178]	50 to 70	< 50	< 50

Reference: patent US9212151B2, “Heterocyclic compounds useful for kinase inhibition” (Amitech Therapeutic Solutions, Inc., priority 2010, dated 2015)
